Experiment [1] has as its system Candida tropicalis. The experiment can be described thus: Antifungal activity against Candida tropicalis T19 blood stream isolate harboring Fks1p FLTLS/PLRDP mutant protein. It counts as functional.
The target in experiment [2] is T1, 1,3-beta-D-glucan synthase subunit 1 (Candida tropicalis, UniProt B6S6L8, S80P). The experiment can be described thus: Inhibition of Candida tropicalis T3 blood stream isolate glucan synthase subunit FKS1p with FLTLS/PLRDP mutant at monophasic kinetics.
A short description of experiment [3]: Inhibition of Candida tropicalis ATCC 750 glucan synthase subunit FKS1p at monophasic kinetics.
The nature of experiment [4]: Inhibition of Candida tropicalis T7 blood stream isolate glucan synthase subunit FKS1p at monophasic kinetics.
Experiment [5] concerns the target T1, 1,3-beta-D-glucan synthase subunit 1. As to the kind of experiment: Inhibition of Candida tropicalis T19 blood stream isolate glucan synthase subunit FKS1p with FLTLS/PLRDP mutant at monophasic kinetics.
Experiment [6] concerns Candida albicans. The experiment can be described thus: Antifungal activity against Candida albicans 205 harboring Fks1p FLTLPLRDP mutant protein. It counts as functional.
The subject of experiment [7] is Candida tropicalis. As to the kind of experiment: Antifungal activity against Candida tropicalis ATCC 750. It counts as functional.
The subject of experiment [8] is Candida tropicalis. The experiment can be described thus: Antifungal activity against Candida tropicalis T3 blood stream isolate harboring Fks1p FLTLS/PLRDP mutant protein. It counts as functional.
For experiment [9], the system named is Candida tropicalis. The experiment can be described thus: Antifungal activity against Candida tropicalis T7 blood stream isolate. It counts as functional.
Experiment [10] concerns the target T1, 1,3-beta-D-glucan synthase subunit 1. The experiment can be described thus: Inhibition of Candida tropicalis T19 blood stream isolate glucan synthase subunit FKS1p with FLTLS/PLRDP mutant at biphasic kinetics.
Experiment [11] has the same target. The experiment can be described thus: Inhibition of Candida tropicalis T3 blood stream isolate glucan synthase subunit FKS1p with FLTLS/PLRDP mutant at biphasic kinetics.
The target of experiment [12] is 1,3-beta-D-glucan synthase subunit 1 (Candida tropicalis, UniProt B6S6L8, F76L). The experiment can be described thus: Inhibition of Candida tropicalis T26 blood stream isolate glucan synthase subunit FKS1p with LLTLSLRDP mutant at monophasic kinetics.
Experiment [13] has as its system Candida tropicalis. The experiment can be described thus: Antifungal activity against Candida tropicalis T26 blood stream isolate harboring Fks1p LLTLSLRDP mutant protein. It counts as functional.
The test system of experiment [14] is Candida albicans. As to the kind of experiment: Antifungal activity against Candida albicans ATCC 90028. It counts as functional.
A short description of experiment [15]: Inhibition of Candida albicans 205 glucan synthase subunit FKS1p FLTLPLRDP mutant at monophasic kinetics.
Experiment [16] has as its target T2, Beta-1,3-glucan synthase (Candida albicans, UniProt O13383).
T2 sequence (O13383 whole entry): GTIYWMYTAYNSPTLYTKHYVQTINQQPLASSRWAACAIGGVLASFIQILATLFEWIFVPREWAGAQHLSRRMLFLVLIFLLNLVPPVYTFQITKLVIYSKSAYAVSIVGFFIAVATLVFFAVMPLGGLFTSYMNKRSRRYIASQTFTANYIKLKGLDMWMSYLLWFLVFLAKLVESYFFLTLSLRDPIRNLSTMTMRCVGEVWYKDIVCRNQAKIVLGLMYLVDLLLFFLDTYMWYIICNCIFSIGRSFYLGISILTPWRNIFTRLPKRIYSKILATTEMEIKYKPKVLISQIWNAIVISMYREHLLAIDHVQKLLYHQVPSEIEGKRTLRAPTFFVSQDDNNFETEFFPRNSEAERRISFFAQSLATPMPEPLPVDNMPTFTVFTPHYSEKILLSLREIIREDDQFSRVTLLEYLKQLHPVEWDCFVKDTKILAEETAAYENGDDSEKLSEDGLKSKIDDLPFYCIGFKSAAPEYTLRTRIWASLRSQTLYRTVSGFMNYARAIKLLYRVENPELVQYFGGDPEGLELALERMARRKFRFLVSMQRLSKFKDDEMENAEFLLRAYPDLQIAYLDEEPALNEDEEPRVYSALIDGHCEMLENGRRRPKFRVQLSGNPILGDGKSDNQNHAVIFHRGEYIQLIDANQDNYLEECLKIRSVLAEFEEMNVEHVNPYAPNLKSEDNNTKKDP
As to the kind of experiment: Inhibition of Candida albicans ATCC 90028 glucan synthase at monophasic kinetics.

In brackets after ≈: the same amount, converted by molar mass. *1 amine or outer side, *2 acyl side, *3 side chain or, on linkers, in order; H or OH if unused. Where a SMILES comes first, the peptide text is derived from it. Bridges are numbered along the chain shown (N, C = ends). [ ]: non-standard residue; d: D form. The star is where a group is joined. hTyr(3S-OH,4S-OH,3'-OSO3H) = N[C@H](C(=O)O)[C@H](O)[C@@H](O)c1ccc(O)c(OS(=O)(=O)O)c1; pTerphenylCO(4''-OnC5H11) = CCCCCOc1ccc(-c2ccc(-c3ccc(C(=O)*)cc3)cc2)cc1; Orn(4R-OH,5R-OH) = O=C([C@H](C[C@@H](O)[C@@H](O)N[*:3])N[*:1])[*:2]; hTyr(3S-OH,4S-OH) = N[C@H](C(=O)O)[C@H](O)[C@@H](O)c1ccc(O)cc1; Pro(3S-OH,4S-Me) = C[C@H]1CN[C@H](C(=O)O)[C@H]1O; X1 = CCCCCOc1ccc(-c2cc(-c3ccc(C(=O)*)cc3)no2)cc1; Gln(3R-OH) = NC(=O)C[C@@H](O)[C@H](N)C(=O)O; Hyp = O=C(O)[C@@H]1C[C@@H](O)CN1

One may read the MIC as the lowest concentration found to suppress growth. High values mean a need for much substance, low ones inhibition by little substance. The IC50 is the concentration at which inhibition is half-maximal. Read a low IC50 as greater potency.

1,3-beta-D-glucan synthase subunit 1 (Candida tropicalis, UniProt B6S6L8, F76L), sequence (B6S6L8 entry or part of it F76L): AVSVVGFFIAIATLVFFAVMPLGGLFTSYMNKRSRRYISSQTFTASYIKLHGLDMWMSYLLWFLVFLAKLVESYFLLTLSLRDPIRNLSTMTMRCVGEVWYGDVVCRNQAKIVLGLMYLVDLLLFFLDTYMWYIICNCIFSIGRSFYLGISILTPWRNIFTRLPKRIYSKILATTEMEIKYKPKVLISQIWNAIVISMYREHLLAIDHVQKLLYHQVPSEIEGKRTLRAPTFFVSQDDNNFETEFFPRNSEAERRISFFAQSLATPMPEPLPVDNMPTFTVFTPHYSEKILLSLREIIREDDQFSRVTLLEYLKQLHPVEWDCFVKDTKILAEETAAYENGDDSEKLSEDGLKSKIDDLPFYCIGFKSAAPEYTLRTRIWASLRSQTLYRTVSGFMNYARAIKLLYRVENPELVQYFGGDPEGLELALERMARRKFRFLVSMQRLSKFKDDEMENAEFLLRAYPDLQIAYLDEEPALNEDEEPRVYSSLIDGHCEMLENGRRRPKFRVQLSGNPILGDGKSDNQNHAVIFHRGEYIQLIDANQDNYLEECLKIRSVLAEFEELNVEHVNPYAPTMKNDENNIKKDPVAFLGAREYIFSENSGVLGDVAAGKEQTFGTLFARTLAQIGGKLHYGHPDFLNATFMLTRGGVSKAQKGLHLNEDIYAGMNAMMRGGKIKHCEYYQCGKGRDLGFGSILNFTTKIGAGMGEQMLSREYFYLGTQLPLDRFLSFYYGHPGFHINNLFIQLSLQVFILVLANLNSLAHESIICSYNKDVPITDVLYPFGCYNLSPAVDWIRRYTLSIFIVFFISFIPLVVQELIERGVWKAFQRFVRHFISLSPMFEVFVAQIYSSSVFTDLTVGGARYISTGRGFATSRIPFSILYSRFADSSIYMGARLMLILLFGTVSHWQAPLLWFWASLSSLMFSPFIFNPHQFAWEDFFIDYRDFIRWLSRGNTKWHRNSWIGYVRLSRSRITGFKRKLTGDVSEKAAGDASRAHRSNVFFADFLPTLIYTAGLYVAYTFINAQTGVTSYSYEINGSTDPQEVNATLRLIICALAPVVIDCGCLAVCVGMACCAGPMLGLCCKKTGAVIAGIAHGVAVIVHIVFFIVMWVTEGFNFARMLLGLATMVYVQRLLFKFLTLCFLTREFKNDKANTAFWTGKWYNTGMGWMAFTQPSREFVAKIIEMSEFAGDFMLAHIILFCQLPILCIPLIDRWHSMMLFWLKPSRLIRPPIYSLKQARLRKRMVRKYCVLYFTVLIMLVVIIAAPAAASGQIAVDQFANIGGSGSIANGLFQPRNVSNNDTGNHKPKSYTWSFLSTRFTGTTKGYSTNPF
T1 sequence (B6S6L8 entry or part of it S80P): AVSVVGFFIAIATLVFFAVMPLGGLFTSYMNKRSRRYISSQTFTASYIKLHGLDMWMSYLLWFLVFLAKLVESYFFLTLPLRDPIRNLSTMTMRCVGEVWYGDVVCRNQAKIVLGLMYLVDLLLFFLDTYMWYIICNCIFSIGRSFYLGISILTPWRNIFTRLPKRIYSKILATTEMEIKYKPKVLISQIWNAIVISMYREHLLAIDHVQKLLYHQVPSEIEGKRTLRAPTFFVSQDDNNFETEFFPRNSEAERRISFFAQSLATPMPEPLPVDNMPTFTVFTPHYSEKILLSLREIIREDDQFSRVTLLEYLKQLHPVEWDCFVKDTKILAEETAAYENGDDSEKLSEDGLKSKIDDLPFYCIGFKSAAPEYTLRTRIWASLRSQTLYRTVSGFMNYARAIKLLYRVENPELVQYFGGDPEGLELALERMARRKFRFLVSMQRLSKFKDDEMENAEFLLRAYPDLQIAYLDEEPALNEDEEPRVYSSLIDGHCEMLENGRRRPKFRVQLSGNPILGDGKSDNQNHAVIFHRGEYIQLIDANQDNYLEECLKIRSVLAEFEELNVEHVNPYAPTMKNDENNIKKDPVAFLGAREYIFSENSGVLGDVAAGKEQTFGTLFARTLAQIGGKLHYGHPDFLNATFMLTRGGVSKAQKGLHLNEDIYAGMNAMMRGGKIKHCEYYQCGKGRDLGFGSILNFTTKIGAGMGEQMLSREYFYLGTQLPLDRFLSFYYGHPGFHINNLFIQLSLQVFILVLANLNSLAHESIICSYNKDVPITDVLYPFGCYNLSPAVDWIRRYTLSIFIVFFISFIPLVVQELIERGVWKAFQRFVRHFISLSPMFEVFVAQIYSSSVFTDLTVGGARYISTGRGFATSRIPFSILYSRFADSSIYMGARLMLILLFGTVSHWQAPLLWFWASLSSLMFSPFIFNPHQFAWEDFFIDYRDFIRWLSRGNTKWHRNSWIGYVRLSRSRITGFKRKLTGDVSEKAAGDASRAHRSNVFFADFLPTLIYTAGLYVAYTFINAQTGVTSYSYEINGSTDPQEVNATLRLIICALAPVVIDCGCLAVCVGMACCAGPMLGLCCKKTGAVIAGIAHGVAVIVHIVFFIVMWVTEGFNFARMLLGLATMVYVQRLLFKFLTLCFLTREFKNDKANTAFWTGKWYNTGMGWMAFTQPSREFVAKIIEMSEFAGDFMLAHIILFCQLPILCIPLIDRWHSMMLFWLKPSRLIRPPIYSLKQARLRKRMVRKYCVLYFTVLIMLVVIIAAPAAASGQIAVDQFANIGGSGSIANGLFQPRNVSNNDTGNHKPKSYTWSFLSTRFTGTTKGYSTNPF

Consider `CC[C@H](C)C[C@H](C)CCCCCCCCC(=O)N[C@H]1C[C@@H](O)[C@@H](NCCN)NC(=O)[C@@H]2[C@@H](O)CCN2C(=O)[C@H]([C@H](O)CCN)NC(=O)[C@H]([C@H](O)[C@@H](O)c2ccc(O)cc2)NC(=O)[C@@H]2C[C@@H](O)CN2C(=O)[C@H]([C@@H](C)O)NC1=O` [CASPOFUNGIN], for which the MIC in [1] was found to be 4 µg/mL (≈ 3.66 µM); in experiment [6], 8 µg/mL (≈ 7.32 µM); in [7], 0.25 µg/mL (≈ 0.229 µM); in experiment [8], 4 µg/mL (≈ 3.66 µM); in experiment [9], 0.5 µg/mL (≈ 0.457 µM); in experiment [13], 1 µg/mL (≈ 0.915 µM). For the same compound, in experiment [14], the lowest concentration to inhibit growth (MIC) was 0.12 µg/mL (≈ 0.11 µM). Besides, the IC50 in experiment [2] is 0.00028 µM; in experiment [3], 0.002331 µg/mL (≈ 0.00213 µM); in [4] it was 0.007652 µg/mL (≈ 0.007 µM); in [5], 0.000271 µM; in [10], 0.241 µM; in experiment [11], 0.338 µM. The IC50 in experiment [12] was 0.0703 µM; in experiment [15] it was 0.2454 µg/mL (≈ 0.224 µM); in experiment [16], 0.000457 µM.
Take `OC(Cn1cncn1)(Cn1cncn1)c1ccc(F)cc1F` [FLUCONAZOLE]: the MIC in experiment [1] was determined as 32 µg/mL (≈ 104 µM); in [8] it was 8 µg/mL (≈ 26.1 µM); in experiment [9], 0.25 µg/mL (≈ 0.816 µM); in experiment [13], 0.5 µg/mL (≈ 1.63 µM).
Take `CCCCCOc1ccc(-c2ccc(-c3ccc(C(=O)N[C@H]4C[C@@H](O)[C@@H](O)NC(=O)[C@@H]5[C@@H](O)[C@@H](C)CN5C(=O)[C@H]([C@@H](C)O)NC(=O)[C@H]([C@H](O)[C@@H](O)c5ccc(O)cc5)NC(=O)[C@@H]5C[C@@H](O)CN5C(=O)[C@H]([C@@H](C)O)NC4=O)cc3)cc2)cc1` [ANIDULAFUNGIN] ({pTerphenylCO(4''-OnC5H11)}-[Orn(4R-OH,5R-OH)]T[Hyp][hTyr(3S-OH,4S-OH)]T[Pro(3S-OH,4S-Me)]; lactam 1-C): the minimum inhibitory concentration (MIC) in [1] is 1 µg/mL (≈ 0.877 µM); in experiment [6], 2 µg/mL (≈ 1.75 µM); in experiment [7], 0.06 µg/mL (≈ 0.0526 µM); in [8], 2 µg/mL (≈ 1.75 µM); in [9] it was 0.12 µg/mL (≈ 0.105 µM); in [13] it was 0.5 µg/mL (≈ 0.438 µM). The compound further gave an MIC in experiment [14] of 0.03 µg/mL (≈ 0.0263 µM). For the same compound, the IC50 in [2] was 0.000281 µM; in experiment [3], 0.004661 µg/mL (≈ 0.00409 µM); in [4] it was 0.002689 µg/mL (≈ 0.00236 µM); in [5], 0.000503 µM; in experiment [10], 0.357 µM; in experiment [11], 0.205 µM. Moreover, the IC50 was 0.0277 µM in experiment [12], 0.989 µg/mL (≈ 0.867 µM) in [15] and 0.0016 µM in experiment [16].
On to `CCCCCOc1ccc(-c2cc(-c3ccc(C(=O)N[C@H]4C[C@@H](O)[C@@H](O)NC(=O)[C@@H]5[C@@H](O)[C@@H](C)CN5C(=O)[C@H]([C@H](O)CC(N)=O)NC(=O)[C@H]([C@H](O)[C@@H](O)c5ccc(O)c(OS(=O)(=O)O)c5)NC(=O)[C@@H]5C[C@@H](O)CN5C(=O)[C@H]([C@@H](C)O)NC4=O)cc3)no2)cc1` [MICAFUNGIN] (X1-[Orn(4R-OH,5R-OH)]T[Hyp][hTyr(3S-OH,4S-OH,3'-OSO3H)][Gln(3R-OH)][Pro(3S-OH,4S-Me)]; lactam 1-C), for which the MIC in experiment [1] came to 2 µg/mL (≈ 1.57 µM); in [6], 4 µg/mL (≈ 3.15 µM); in experiment [7] it was 0.06 µg/mL (≈ 0.0472 µM); in experiment [8], 2 µg/mL (≈ 1.57 µM); in experiment [9] it was 0.06 µg/mL (≈ 0.0472 µM); in [13], 0.5 µg/mL (≈ 0.394 µM). The MIC in [14] was found to be 0.03 µg/mL (≈ 0.0236 µM). Besides, the IC50 in [2] was 0.000117 µM; in experiment [3] it was 0.007545 µg/mL (≈ 0.00594 µM); in experiment [4], 0.006168 µg/mL (≈ 0.00486 µM); in [10], 0.223 µM; in experiment [11], 0.228 µM; in experiment [12], 0.0596 µM. The half-maximal inhibitory concentration (IC50) in experiment [15] was 1.085 µg/mL (≈ 0.854 µM); in experiment [16], 0.0148 µM.
With `C[C@@H](c1ncncc1F)[C@](O)(Cn1cncn1)c1ccc(F)cc1F` [VORICONAZOLE], the MIC in experiment [1] worked out at 2 µg/mL (≈ 5.73 µM); in experiment [8], 1 µg/mL (≈ 2.86 µM); in [9], 0.06 µg/mL (≈ 0.172 µM); in experiment [13], 0.03 µg/mL (≈ 0.0859 µM).
The matching figures for `CCC(C)n1ncn(-c2ccc(N3CCN(c4ccc(OCC5COC(Cn6cncn6)(c6ccc(Cl)cc6Cl)O5)cc4)CC3)cc2)c1=O` (stereo not drawn) [ITRACONAZOLE]: 1 µg/mL (≈ 1.42 µM), 0.5 µg/mL (≈ 0.709 µM), 0.25 µg/mL (≈ 0.354 µM) and 0.125 µg/mL (≈ 0.177 µM).
The matching figures for `CC[C@@H]([C@H](C)O)n1ncn(-c2ccc(N3CCN(c4ccc(OC[C@@H]5CO[C@@](Cn6cncn6)(c6ccc(F)cc6F)C5)cc4)CC3)cc2)c1=O` [POSACONAZOLE]: 1 µg/mL (≈ 1.43 µM), 0.25 µg/mL (≈ 0.357 µM), 0.25 µg/mL (≈ 0.357 µM) and 0.06 µg/mL (≈ 0.0856 µM).

The values above are taken from ChEMBL document CHEMBL1275554, “Caspofungin-resistant Candida tropicalis strains causing breakthrough fungemia in patients at high risk for hematologic malignancies” (Antimicrob Agents Chemother, 2008).
